According to US11230542B2, “Inhibitors of integrated stress response pathway” (Praxis Biotech LLC, priority 2017, dated 2022):

Columns and labels:
Format in all cases: in vivo, mouse
[1] = system: 19-month old male C57Bl/6J mice; test: Learning memory in aged mice (8-arm radial water maze, hippocampal ATF4); conditions: 5 mg/kg intraperitoneally, versus vehicle
Description: Wild type 19-month old male C57Bl/6J mice were used in an 8-arm radial water maze (RAWM) to measure the hippocampal-mediated learning memory. The maze involved a pool 118.5 cm in diameter and 25 cm high with 8 arms, each 41 cm in length, and an escape platform that could be moved. The pool was filled with water that was rendered opaque by adding white paint (Crayola, 54-2128-053). The escape platform remains hidden during the experiment. Visual cues were placed around the room such that they were visible to animals exploring the maze. […]
Behavioral tests were recorded and scored using a video tracking and analysis setup (Ethovision XT 8.5, Noldus Information Technology). The program automatically analyzed the number of incorrect arm entries (termed number of errors) made per trial. […]
At the end of the behavioral test, animals were sacrificed and the hippocampi were extracted and immediately frozen in liquid nitrogen and then stored at −80° C. […] Protein concentration in supernatants was determined using BCA Protein Assay Kit (Pierce). […]
ATF4 (11815) antibody (Cell Signaling Technologies) and β-actin (Sigma-Aldrich) antibodies were used as primary antibodies. […] Quantification of protein bands was done by densitometry using ImageJ software.

[2] = system: Balb/c mice injected with CT26 colon carcinoma cell line; test: Cachexia-induced muscle atrophy (CT26 tumor cells); conditions: 10 mg/kg daily oral gavage for 13 days
Method: Wild type six-weeks-old male Balb/c mice obtained from the vivarium Fundacion Ciencia & Vida Chile (Santiago, Chile) were used. Mice were housed in independent plastic cages in a room maintained at 25° C. with a 12-h:12-h light:dark cycle.
1×10^6 CT26 colon carcinoma cell line (ATCC #CRL-2638, ATCC Manassas, Va.) were injected subcutaneously in the right lower flank of each animal for induction of cachexia-induced muscle atrophy as described (Nat Commun. 2012 Jun. 12; 3:896). Non-injected animals were used as controls. At day 6 post tumor-cell injection, animals were randomized into two groups and treated with 10 mg/kg of compound 3 formulated in 50% Polyethylene glycol (PEG-400) in distilled water, or with vehicle (50% PEG-400 in distilled water) by daily oral gavage for 13 days.
For in vivo measurements of protein synthesis, 30 min before the study ends, animals were injected intraperitoneally with puromycin (Sigma-Aldrich, P8833) at 0.04 μmol/g body weight in a volume of 200 μL of PBS. […]
(§1) Upon collection, muscles were immediately frozen in liquid nitrogen and then stored at −80° C. […] Protein concentration in supernatants was determined using BCA Protein Assay Kit (Pierce). […]
Puromycin (12D10) (Merck Millipore) and β-actin (Sigma-Aldrich) antibodies were used as primary antibodies. […] Quantification of protein bands was done by densitometry using ImageJ software.

fasted Balb/c mice = test: Fasting-induced muscle atrophy; conditions: 10 mg/kg oral
Method: Wild type eight-weeks-old male Balb/c mice obtained from the vivarium Fundacion Ciencia & Vida Chile (Santiago, Chile) were used. Mice were housed in independent plastic cages in a room maintained at 25° C. with a 12-h:12-h light:dark cycle.
Twenty-four hours before and during the 2 days of fasted procedures, animals received oral administration via feeding tubes (15 gauge) of vehicle (50% Polyethylene glycol 400 (Sigma-Aldrich P3265) in distilled water or 10 mg/kg of compound 3 formulated in vehicle solution.
After 2 days of fasting the animals were sacrificed and muscles were removed from both hindlimbs. Mice with feed and water ad libitum were used as control.
For in vivo measurements of protein synthesis, puromycin (Sigma-Aldrich, P8833) was prepared at 0.04 μmol/g body weight in a volume of 200 μL of PBS, and subsequently administered into the animals via IP injection, 30 min prior to muscle collection.
as §1
Puromycin (12D10) (Merck Millipore) and β-actin (Sigma-Aldrich) antibodies were used as primary antibodies. […] Quantification of protein bands was done by densitometry using ImageJ software. […]

Compound: O=C(COc1ccc(Cl)cc1)N[C@H]1CC[C@H](NC[C@@H](O)COc2ccc(Cl)cc2)CC1 (single isomer, unassigned) [Compound 3, (+)-2-(4-chlorophenoxy)-N-(4-((3-(4-chlorophenoxy)-2-hydroxypropyl)amino)cyclohexyl)acetamide]
- ATF4 expression normalized to β-actin in hippocampi [1]: lower levels of ATF4 expression compared with vehicle-treated animals
- RAWM task performance (learning memory) [1]: performed better than vehicle-treated animals
- muscle weight (gastrocnemius, quadriceps, tibialis anterior) [2]: prevented the CT26-induced muscle weight loss
- protein synthesis in muscle ([2]; quadriceps and tibialis anterior, versus vehicle): significantly increase protein synthesis
- protein synthesis, puromycin staining in muscle fiber CSA (fasted Balb/c mice): partial recovery of protein synthesis
